According to patent US20090253789A1, “Preventive/Remedy for Arteriosclerotic Disease and Method of Evaluating Therapeutic Procedure” (Takeda Pharmaceutical Company Limited, priority 2006, published 2009):

Legend:
[1] = system: atherosclerotic lesion; details: pre-clinical tests; accompanied with reduction in plasma cholesterol level; cited from earlier work
[2] = clinical test; cited from earlier work
[3] = system: atherosclerotic lesion; test: Anti-atherosclerotic activity test in WHHL rabbit: cholesterol ester content of thoracic aorta; format: in vivo
Method: (§1) Using 7-month-old WHHL rabbits, the compound X (3, 10 mg/kg/day) was orally administered once a day for 12 weeks and influence on atherosclerosis was examined. Before drug administration, aortic atherosclerosis was tested by intravascular ultrasound (IVUS), and WHHL rabbits were grouped based on the aortic atherosclerosis, plasma cholesterol level and sex.
(§2) Before initiation of administration, and 1, 2, 4, 6, 8, 10, 12 weeks from administration, blood samples were collected, a plasma total cholesterol level of each sample was measured using a biochemical automatic analysis apparatus and a plasma total cholesterol exposure amount during the administration period was obtained by a trapezoid formula. After administration, the thoracic aorta was removed, and a cholesterol ester content as an index of atherosclerosis was measured.

[4] = Anti-atherosclerotic activity test in WHHL rabbit: plasma total cholesterol exposure amount; format: in vivo; details: for Plasma total cholesterol exposure amount during administration period: average ± standard error, control 6194 ± 511, no significant difference (Williams' test)
Method: as §1, §2

[5] = molecular target: T1, ACAT (Oryctolagus cuniculus, UniProt A0A5F9CPP4); test: Atherosclerotic lesion ACAT enzyme inhibition test (3-day oral administration, lesion homogenate, correction markers); format: in vivo, WHHL rabbit
T1 construct: to obtain a homogenate, which was used as an “atherosclerotic lesion sample” for a biochemical measurement; from tissue; host or cells: aortic atherosclerotic lesion tissue homogenate of WHHL rabbits dosed orally for 3 days
T1 sequence (A0A5F9CPP4 1-555): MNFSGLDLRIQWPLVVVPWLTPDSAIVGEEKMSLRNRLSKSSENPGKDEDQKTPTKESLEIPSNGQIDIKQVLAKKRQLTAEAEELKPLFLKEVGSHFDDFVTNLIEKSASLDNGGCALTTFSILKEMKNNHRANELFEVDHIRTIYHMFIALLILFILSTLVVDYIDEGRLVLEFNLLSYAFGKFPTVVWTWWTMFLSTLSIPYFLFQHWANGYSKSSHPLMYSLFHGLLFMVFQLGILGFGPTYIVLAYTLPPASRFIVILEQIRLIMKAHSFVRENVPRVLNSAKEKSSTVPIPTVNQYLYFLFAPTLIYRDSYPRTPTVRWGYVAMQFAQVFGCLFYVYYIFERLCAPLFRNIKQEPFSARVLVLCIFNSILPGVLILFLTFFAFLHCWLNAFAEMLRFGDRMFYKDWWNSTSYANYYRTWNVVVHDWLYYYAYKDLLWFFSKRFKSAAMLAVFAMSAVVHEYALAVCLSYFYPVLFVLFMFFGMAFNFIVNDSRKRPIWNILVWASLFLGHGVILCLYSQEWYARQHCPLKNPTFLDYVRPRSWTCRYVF
From the text: Using a rabbit having an atherosclerotic lesion in the aorta due to rearing with a high cholesterol diet, or due to hereditary hyperlipemia, etc., an ACAT inhibitor or a medium was orally administered once a day for 3 days. About two hours after final administration, the rabbit was anesthetized and killed by exsanguination, and the aorta was removed, frozen and stored. After thawing the frozen-stored aorta, a tissue section of an atherosclerotic lesion residing site was corrected using a biopsy trephine. […]
An ACAT reaction was measured by mixing a reaction buffer (0.19 M Tris-HCl pH 7.5, 3 mM EDTA, cholesterol 0.2 mg/ml, BSA 3 mg/ml), the aforementioned “atherosclerotic lesion sample”, and a substrate solution ([3H]Oleoyl-CoA), reacting the mixture with stirring at 37° C. for 30 minutes, fractionating a lipid fraction by thin layer chromatography, and measuring radioactivity (DPM) incorporated into a cholesteryl ester fraction with a liquid scintillation counter. Radioactivity of a blank sample (STE buffer instead of the homogenate was added) was also measured, and a value obtained by subtracting radioactivity of the blank from radioactivity of each sample was adopted as the ACAT enzyme activity. […]

Compound | anti-atherosclerotic activity: cholesterol ester in an atherosclerotic lesion [1] | anti-atherosclerotic activity [2] | effect on blood lipid level [2] | anti-atherosclerotic activity by long-term treatment ([3]; 3 and 10 mg/kg, long-term treatment) | cholesterol ester content of the thoracic aorta ([3]; 3 and 10 mg/kg/day orally for 12 weeks (FIG. 10)) | Plasma total cholesterol exposure amount during administration period ([4]; 3 mg/kg/day orally for 12 weeks) | Plasma total cholesterol exposure amount during administration period ([4]; 10 mg/kg/day orally for 12 weeks) | effect on plasma total cholesterol exposure amount during the administration period (in words) ([4]; 3 and 10 mg/kg/day orally for 12 weeks) | inhibition of ACAT enzyme activity, LAL correction ([5]; 3 mg/kg orally once a day for 3 days, vs control group) | inhibition of atherosclerotic lesion ACAT activity utilizing the correction marker ([5]; 3 and 10 mg/kg, administration for 3 days)
CC(C)c1cc(C(C)C)c(CC(=O)NS(=O)(=O)Oc2c(C(C)C)cccc2C(C)C)c(C(C)C)c1 [Avasimibe] | lowering a cholesterol ester in an atherosclerotic lesion | no effect was observed | certain effect |  |  |  |  |  |  | 
Monopotassium bis((2E)-3-{3-[7-chloro-3-(2-{[4-fluoro-2-(trifluoromethyl)phenyl]amino}-2-oxoethyl)-6-methyl-2-oxo-2H-chromen-4-yl]phenyl}acrylate) trihydrate [compound X] |  |  |  | clear anti-atherosclerotic activity | significantly reduced | 5356 ± 410 mg · week/dL | 4957 ± 490 mg · week/dL | only a reduction tendency | significant inhibition | inhibited the atherosclerotic lesion ACAT activity of the WHHL rabbit dose-dependently
